Test results taken from patent US20240269148A1, “Enhancement of Anti-Angiogenic Cancer Immunotherapy by Abortogenic Agents” (Therapeutic Solutions International, Inc., priority 2023, published 2024).

What was measured:
4T1 cells = assay: 4T1 triple negative breast cancer model in BALB/c mice; format: in vivo
Protocol: Female BALB/c mice were administered 4T1 cells at a concentration of 1 million cells per mouse. VALLOVAX™ at a concentration of 500,000 cells per mouse was administered alone, RU-486 was administered alone (25 μg/g dose) and in combination of RU-486 and VALLOVAX™.

T cell = T cell reactivity in vitro after RU-486 administration (4T1 model); format: cell-based; conditions: administration of RU-486

## CC#C[C@]1(O)CC[C@H]2[C@@H]3CCC4=CC(=O)CCC4=C3[C@@H](c3ccc(N(C)C)cc3)C[C@@]21C [RU-486, mifepristone]
4T1 cells; administration of RU-486
  Breast cancer induced myeloid suppressor cells: decreased
  Generation of CD8 cells capable of adoptively transferring immunity: enhance
4T1 cells; triple negative breast cancer 4T1 model
  Therapeutic activity of ValloVax: enhances
T cell
  T cell reactivity in vitro: increased
